# Assay results as given in patent US20240342137A1 (priority 2023, published 2024).
# Where two headings read alike, the source gives them in different places.
# How the values were obtained:
# [1] = target: T1, alpha-2 adrenoceptors; conditions: cited from earlier work; for IC50: read-out: half-maximal inhibitory concentration
# T1 construct: rows headed: Alpha-2 Ki; other: [3H]clonidine displacement, brain membrane; other: alpha-2; lower sensitivity compared to atipamezole; other: alpha-2, vs atipamezole
# [2] = target: alpha-1 adrenoceptors; conditions: cited from earlier work
# [3] = human, in vivo; cited from earlier work
# [4] = system: other adrenergic, opioid or GABA (Gamma-AminoButyric Acid class) sedative and analgesic agents; conditions: cited from earlier work
# [5] = physchem; conditions: water
# [6] = human, in vivo, 20 mg, cited from earlier work
# [7] = assay type: physicochemical; conditions: pH 6
# [8] = system: xylazine sedative effects; conditions: in vivo; cited from earlier work
# [9] = system: other neurotransmitter receptors including I2 and 5-HT; conditions: cited from earlier work
# [10] = human, in vivo, cited from earlier work
compound,measurement,setting,value
c1ccc2c(c1)OCC(C1=NCCN1)O2 (stereo not drawn) [Idazoxan],Ki,[1],148 nM
same,IC50,[1],148 nM
same,Ki,[2],3960 nM
"CCC1(c2cnc[nH]2)Cc2ccccc2C1 [Atipamezole, 4-(2-ethyl-2,3-dihydro-1H-inden-2-yl)-1H-imidazole]",Ki,[1],1.6 nM
same,IC50,[1],1.6 nM
same,increase in heart rate and blood pressure,[3],14-17 mmHg (which may benefit those who are under deep respiratory
same,safety in humans by dose,[3],safe up to 100 mg dose
same,untoward or Severe Adverse Event (SAE),[3],At 30-100 mg/dose in human with no major untoward or Severe Adverse
same,"effect on other adrenergic, opioid or GABA sedative and analgesic agents",[4],"No effect on other adrenergic, opioid or GABA (Gamma-AminoButyric"
same,solubility,[5],~70 µg/mL
same,Ki,[2],13300 nM
same,AUC,[6],85 ng·h/mL
same,Cmax,[6],23 ng/mL
same,T1/2,[6],2.0 h
same,Tmax,[6],0.76 h
same,AUC,[6]; iv,231 ng·h/mL
same,Cmax,[6]; iv,145 ng/mL
same,T1/2,[6]; iv,1.8 h
same,AUC,[6]; po,4.2 ng·h/mL
same,Cmax,[6]; po,1.2 ng/mL
same,T1/2,[6]; po,2.0 h
same,Tmax,[6]; po,0.82 h
same,final atipamezole concentration when fully dissolved,[7],375.8 mM
same,breathing rate reversal of xylazine sedative effects,[8],Rapid breathing rate reversal of xylazine sedative effects within a few
same,concentrations of atipamezole for restoring breathing rate,[8],10 to 20 ng/mL
same,effect on other neurotransmitter receptors including I2 and 5-HT,[9],Negligible or no effect on other neurotransmitter receptors including I2
same,T1/2,"[10]; iv, 15 ug/kg",2.04 h
same,Tmax,"[10]; iv, 15 ug/kg",0.25 h
same,T1/2,"[10]; iv, 50 ug/kg",1.92 h
same,T1/2,"[10]; iv, 150 ug/kg",1.83 h
same,elimination half-life,[10]; iv,approximately 2 hour
same,elimination half-life,[10],Short elimination half-life (~2 h in humans) improving safety
COC(=O)[C@@H]1[C@H]2C[C@H]3c4[nH]c5ccccc5c4CCN3C[C@@H]2CC[C@@H]1O [Yohimbine],Ki,[2],5130 nM
